Reference: patent publication US20150209263A1, “Method and Compositions for Oral Hygiene” (Imrex, Inc., priority 2003, published 2015)
“Also recorded” adds a separate entry of the source.

Tested on: cats with recalcitrant stomatitis
Experiment: Treatment of cats with recalcitrant stomatitis (case reports)
Format: in vivo
Conditions: single cat case reports
Procedure: Several cats experiencing recalcitrant stomatitis were treated using oral hygiene composition of the present invention further comprising emilgase. All compositions comprised 0.05% emilgase. All treatments were 5 mL/500 mL water (10 mL/L rate). If additional water was required after the 500 mL was consumed, plain water was offered. Any unconsumed solution was discarded after 24 hours and fresh solution was mixed.

SMILES | response of stomatitis to treatment
CC[C@H]1OC(=O)[C@H](C)[C@@H](O[C@H]2C[C@@](C)(OC)[C@@H](O)[C@H](C)O2)[C@H](C)[C@@H](O[C@@H]2O[C@H](C)C[C@H](N(C)C)[C@H]2O)[C@](C)(O)C[C@@H](C)CN(C)[C@H](C)[C@@H](O)[C@]1(C)O [Zithromax] | temporary responses; also recorded: did not respond
CN1CCN(c2c(F)cc3c(=O)c(C(=O)O)cn4c3c2OCN4C)CC1 [Zeniquin] | responded well
